The source made the active and inactive calls.
Columns and labels:
Assay type in all cases: functional
[1] = molecular target: T1, Replicative DNA helicase DnaB (Mycobacterium tuberculosis, UniProt P9WMR3); test: DnaB intein splicing inhibitors, dose response, biochemical, cell-free fluorescence (AID 449749)
T1 sequence (P9WMR3 whole entry): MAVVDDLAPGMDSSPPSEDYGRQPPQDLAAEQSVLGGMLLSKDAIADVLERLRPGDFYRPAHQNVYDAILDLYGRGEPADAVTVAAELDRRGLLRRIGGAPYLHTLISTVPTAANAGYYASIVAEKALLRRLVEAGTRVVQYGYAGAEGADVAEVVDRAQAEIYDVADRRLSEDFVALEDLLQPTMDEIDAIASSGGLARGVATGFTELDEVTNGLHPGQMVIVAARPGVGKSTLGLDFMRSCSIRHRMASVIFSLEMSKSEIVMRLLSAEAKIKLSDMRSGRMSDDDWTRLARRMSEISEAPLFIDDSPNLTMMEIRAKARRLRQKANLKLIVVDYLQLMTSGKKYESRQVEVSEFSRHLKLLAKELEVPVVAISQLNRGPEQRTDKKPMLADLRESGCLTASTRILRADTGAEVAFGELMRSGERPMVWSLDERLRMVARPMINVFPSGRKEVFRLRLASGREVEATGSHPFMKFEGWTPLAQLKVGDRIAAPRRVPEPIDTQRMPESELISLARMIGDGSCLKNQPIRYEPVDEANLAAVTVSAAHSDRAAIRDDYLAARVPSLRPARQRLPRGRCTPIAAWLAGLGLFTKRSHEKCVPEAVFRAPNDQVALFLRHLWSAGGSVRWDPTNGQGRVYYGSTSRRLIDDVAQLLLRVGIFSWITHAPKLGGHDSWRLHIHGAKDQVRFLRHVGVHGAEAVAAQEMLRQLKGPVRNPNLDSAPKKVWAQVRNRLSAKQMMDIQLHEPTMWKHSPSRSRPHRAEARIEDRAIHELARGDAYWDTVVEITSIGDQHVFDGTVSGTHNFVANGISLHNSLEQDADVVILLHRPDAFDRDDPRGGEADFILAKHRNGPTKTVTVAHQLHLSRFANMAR

[2] = molecular target: T2, Serine/threonine-protein kinase PLK4 (Homo sapiens, UniProt O00444);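 also: PLK4 measured as one member of a kinome-wide kinase profiling panel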
T2 sequence (O00444 whole entry): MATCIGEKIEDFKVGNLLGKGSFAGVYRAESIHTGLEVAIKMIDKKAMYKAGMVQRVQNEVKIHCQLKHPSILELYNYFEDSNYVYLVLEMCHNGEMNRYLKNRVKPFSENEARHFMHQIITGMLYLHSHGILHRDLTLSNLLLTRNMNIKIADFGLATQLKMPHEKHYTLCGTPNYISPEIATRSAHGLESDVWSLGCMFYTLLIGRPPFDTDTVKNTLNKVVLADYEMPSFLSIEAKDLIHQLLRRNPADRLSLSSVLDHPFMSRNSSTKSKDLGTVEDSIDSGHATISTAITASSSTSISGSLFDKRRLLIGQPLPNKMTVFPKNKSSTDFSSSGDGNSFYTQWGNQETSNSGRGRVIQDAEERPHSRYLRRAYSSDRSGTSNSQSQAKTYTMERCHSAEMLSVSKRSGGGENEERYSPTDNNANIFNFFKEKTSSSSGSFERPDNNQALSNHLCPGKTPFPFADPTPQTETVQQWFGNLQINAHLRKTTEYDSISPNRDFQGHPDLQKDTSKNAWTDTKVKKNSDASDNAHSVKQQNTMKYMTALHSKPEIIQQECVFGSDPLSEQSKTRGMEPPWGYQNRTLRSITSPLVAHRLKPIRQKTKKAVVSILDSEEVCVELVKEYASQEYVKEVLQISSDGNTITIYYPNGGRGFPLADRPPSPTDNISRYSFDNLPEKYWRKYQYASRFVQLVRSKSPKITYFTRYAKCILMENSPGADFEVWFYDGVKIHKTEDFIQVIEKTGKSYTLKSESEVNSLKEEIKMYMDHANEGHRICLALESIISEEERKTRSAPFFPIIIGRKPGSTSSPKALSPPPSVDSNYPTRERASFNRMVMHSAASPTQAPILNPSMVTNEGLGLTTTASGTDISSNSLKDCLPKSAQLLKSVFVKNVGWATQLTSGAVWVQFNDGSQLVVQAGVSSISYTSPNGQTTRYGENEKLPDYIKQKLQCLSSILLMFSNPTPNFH

[3] = molecular target: Dual specificity protein kinase CLK4 (Homo sapiens, UniProt Q9HAZ1)
[4] = molecular target: Cyclin-dependent kinase 8 (Homo sapiens, UniProt P49336); test: Navigating the Kinome. Panel member name: CDK8
Sequence of Cyclin-dependent kinase 8 (P49336 whole entry): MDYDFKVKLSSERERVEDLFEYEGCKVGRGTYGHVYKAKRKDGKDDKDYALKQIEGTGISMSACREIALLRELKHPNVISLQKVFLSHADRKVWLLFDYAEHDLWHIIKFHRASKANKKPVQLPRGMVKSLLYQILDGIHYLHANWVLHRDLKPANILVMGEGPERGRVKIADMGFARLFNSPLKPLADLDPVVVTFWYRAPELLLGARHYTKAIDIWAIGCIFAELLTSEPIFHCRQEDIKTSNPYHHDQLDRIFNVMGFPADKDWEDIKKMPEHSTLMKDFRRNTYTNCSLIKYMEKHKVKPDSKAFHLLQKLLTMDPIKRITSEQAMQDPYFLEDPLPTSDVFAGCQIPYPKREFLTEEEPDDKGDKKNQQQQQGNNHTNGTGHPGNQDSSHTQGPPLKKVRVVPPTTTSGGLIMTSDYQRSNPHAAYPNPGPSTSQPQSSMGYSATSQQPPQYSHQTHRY

[5] = molecular target: Death-associated protein kinase 3 (Homo sapiens, UniProt O43293);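 also: measured as one member of a kinome-wide profiling panel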
Sequence of Death-associated protein kinase 3 (O43293 whole entry): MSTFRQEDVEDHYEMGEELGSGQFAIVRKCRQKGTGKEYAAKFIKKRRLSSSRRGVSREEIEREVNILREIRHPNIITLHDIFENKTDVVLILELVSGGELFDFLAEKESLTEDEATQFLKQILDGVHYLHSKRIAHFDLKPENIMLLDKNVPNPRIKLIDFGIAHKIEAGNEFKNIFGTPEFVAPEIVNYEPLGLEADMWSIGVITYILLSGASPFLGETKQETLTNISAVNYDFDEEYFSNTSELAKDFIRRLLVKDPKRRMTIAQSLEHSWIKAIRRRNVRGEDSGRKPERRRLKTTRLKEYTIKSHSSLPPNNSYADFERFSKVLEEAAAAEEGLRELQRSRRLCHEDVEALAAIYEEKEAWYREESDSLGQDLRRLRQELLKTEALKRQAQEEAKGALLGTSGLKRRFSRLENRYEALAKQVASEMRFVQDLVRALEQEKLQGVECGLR

[6] = molecular target: RAC-gamma serine/threonine-protein kinase (Homo sapiens, UniProt Q9Y243)
Sequence of RAC-gamma serine/threonine-protein kinase (Q9Y243 whole entry, canonical isoform): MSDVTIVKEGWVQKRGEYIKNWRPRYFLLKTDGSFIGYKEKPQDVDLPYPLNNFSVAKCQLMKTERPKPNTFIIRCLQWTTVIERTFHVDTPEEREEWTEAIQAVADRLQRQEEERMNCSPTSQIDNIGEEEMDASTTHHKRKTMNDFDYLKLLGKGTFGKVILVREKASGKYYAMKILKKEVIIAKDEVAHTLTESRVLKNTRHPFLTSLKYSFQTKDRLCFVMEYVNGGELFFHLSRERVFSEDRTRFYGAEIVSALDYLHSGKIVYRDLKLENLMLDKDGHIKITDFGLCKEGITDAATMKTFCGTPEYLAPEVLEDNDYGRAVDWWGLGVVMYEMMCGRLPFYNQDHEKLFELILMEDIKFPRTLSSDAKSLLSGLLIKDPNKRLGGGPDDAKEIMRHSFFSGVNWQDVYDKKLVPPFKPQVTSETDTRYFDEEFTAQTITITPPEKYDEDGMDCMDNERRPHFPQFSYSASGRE

[7] = molecular target: Casein kinase I isoform alpha (Homo sapiens, UniProt P48729)
Sequence of Casein kinase I isoform alpha (P48729 whole entry, canonical isoform): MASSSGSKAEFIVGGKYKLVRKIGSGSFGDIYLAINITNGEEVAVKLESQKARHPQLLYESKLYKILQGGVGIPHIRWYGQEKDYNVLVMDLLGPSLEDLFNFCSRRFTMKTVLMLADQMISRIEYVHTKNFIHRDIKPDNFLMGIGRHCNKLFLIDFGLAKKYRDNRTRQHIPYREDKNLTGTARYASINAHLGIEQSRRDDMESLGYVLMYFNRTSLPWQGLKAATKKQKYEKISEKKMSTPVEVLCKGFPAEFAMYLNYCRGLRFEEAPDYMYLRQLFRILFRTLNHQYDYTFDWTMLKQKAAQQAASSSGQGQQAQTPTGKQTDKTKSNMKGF

[8] = molecular target: Dual specificity mitogen-activated protein kinase kinase 1 (Homo sapiens, UniProt Q02750); test: Navigating the Kinome. Panel member name: MAP2K1
Sequence of Dual specificity mitogen-activated protein kinase kinase 1 (Q02750 whole entry): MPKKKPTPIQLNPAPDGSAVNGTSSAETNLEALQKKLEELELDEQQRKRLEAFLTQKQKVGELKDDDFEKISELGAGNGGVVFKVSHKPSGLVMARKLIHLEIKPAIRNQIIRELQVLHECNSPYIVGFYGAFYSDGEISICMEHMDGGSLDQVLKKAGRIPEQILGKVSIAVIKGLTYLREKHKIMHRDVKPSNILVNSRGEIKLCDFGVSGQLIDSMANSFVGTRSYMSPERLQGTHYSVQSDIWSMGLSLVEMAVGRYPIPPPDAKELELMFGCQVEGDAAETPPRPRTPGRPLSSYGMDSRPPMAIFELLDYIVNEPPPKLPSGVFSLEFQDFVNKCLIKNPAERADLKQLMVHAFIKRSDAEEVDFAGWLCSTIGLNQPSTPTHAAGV

[9] = molecular target: RAC-alpha serine/threonine-protein kinase (Homo sapiens, UniProt P31749);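 also: AKT1 affinity measured as one member of a kinome-wide kinase profiling panel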
Sequence of RAC-alpha serine/threonine-protein kinase (P31749 whole entry): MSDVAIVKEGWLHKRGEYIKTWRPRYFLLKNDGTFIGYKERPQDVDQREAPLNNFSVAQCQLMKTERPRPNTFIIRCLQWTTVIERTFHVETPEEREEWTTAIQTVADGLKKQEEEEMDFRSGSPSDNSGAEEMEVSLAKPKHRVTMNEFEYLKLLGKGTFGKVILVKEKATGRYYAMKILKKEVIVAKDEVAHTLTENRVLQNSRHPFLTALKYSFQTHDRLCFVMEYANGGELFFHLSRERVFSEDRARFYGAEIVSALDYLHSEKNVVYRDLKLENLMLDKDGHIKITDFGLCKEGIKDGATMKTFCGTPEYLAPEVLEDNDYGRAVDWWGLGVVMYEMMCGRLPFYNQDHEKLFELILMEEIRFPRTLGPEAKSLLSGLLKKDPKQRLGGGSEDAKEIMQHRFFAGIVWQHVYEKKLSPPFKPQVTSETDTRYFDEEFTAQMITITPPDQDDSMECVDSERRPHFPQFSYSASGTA

[10] = molecular target: T3, Serine/threonine-protein kinase Chk1 (Homo sapiens, UniProt O14757);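 also: measured as one member of a kinome-wide kinase profiling panel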
T3 sequence (O14757 whole entry): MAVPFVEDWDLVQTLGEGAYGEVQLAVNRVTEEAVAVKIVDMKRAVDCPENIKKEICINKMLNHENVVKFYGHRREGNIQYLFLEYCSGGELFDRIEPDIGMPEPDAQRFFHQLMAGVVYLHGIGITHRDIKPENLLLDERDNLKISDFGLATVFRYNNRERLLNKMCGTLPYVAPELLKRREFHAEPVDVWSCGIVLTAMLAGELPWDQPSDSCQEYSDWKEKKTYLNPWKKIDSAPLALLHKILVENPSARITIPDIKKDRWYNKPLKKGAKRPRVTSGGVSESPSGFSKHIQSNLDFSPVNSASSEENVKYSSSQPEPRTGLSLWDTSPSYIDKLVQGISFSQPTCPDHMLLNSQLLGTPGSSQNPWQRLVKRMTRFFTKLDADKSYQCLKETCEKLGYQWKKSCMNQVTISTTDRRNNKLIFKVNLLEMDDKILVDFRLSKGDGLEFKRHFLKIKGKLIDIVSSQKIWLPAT

[11] = molecular target: Dual specificity tyrosine-phosphorylation-regulated kinase 1B (Homo sapiens, UniProt Q9Y463); test: Navigating the Kinome. Panel member name: DYRK1B
Sequence of Dual specificity tyrosine-phosphorylation-regulated kinase 1B (Q9Y463 whole entry): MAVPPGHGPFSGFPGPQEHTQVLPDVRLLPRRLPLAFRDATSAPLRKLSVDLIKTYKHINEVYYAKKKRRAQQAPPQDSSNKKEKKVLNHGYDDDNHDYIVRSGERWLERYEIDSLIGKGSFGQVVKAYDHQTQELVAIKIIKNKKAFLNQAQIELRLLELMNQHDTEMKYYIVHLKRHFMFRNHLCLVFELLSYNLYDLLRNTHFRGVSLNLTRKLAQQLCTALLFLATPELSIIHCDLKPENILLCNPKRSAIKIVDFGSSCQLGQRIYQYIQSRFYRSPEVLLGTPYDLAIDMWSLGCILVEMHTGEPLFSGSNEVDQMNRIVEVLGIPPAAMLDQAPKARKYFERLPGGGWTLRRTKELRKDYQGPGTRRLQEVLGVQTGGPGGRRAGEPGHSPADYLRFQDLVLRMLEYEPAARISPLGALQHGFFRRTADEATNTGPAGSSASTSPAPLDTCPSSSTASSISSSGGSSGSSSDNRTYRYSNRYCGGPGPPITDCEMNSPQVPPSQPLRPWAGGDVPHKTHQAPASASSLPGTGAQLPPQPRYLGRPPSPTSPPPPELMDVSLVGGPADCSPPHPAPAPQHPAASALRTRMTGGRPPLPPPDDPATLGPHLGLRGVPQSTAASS

[12] = molecular target: Vascular endothelial growth factor receptor 2 (Homo sapiens, UniProt P35968)
Sequence of Vascular endothelial growth factor receptor 2 (P35968 whole entry): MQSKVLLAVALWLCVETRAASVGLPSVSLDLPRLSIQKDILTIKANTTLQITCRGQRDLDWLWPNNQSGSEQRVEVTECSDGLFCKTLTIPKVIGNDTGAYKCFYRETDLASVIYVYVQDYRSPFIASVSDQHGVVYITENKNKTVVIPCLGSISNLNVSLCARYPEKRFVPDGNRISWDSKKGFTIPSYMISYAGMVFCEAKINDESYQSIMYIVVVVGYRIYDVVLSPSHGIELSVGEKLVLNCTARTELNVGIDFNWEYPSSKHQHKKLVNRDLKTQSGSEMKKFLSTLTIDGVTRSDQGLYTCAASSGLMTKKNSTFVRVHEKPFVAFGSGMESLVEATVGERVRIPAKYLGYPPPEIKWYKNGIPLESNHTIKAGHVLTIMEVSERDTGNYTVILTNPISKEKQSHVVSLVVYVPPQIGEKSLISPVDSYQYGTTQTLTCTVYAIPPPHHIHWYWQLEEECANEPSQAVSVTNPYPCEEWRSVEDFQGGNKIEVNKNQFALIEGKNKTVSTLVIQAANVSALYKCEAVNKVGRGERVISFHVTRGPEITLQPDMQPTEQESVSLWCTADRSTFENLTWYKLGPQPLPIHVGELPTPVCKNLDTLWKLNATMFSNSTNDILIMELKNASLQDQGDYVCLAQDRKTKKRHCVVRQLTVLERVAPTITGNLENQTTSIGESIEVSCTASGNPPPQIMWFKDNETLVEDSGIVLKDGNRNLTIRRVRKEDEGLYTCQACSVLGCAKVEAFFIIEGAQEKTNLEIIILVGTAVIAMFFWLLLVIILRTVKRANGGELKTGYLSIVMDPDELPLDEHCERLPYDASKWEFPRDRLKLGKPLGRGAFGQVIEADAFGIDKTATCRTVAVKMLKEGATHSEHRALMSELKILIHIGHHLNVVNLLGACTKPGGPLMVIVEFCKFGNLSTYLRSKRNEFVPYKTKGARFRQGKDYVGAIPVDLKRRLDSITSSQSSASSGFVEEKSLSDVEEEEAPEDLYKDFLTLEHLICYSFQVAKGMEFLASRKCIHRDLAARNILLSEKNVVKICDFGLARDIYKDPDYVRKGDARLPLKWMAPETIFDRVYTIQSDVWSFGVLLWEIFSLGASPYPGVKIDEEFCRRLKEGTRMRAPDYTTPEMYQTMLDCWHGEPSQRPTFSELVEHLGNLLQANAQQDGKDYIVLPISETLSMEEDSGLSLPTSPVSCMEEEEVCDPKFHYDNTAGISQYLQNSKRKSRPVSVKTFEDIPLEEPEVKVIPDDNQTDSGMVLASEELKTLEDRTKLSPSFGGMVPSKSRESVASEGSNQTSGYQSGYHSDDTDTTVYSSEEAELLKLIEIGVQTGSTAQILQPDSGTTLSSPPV

| SMILES | AC50 [1] | Ki [2] | Ki [3] | Ki [4] | Ki [5] | Ki [6] | Ki [7] | Ki [8] | Ki [9] | Ki [10] | Ki [11] | Ki [12] |
| --- | --- | --- | --- | --- | --- | --- | --- | --- | --- | --- | --- | --- |
| COC(=O)CCS(=O)(=O)c1nc(-c2ccccc2)cc(C(F)(F)F)n1 | 3.44 µM (active) | – | – | – | – | – | – | – | – | – | – | – |
| O=C(O)c1ccc(NC2=C(Cl)C(=O)c3ccccc3C2=O)cc1 | 3.36 µM (active) | – | – | – | – | – | – | – | – | – | – | – |
| O=C(O)c1ccc2c3c(ncnc13)-c1ccccc1C2=O | 4.07 µM (active) | – | – | – | – | – | – | – | – | – | – | – |
| Cc1ccc2nccc(NC(=O)Nc3cccc(C(F)(F)F)n3)c2c1 | – | > 3.98 µM (inactive) | 0.1 µM (active) | 0.2 µM (active) | > 1.26 µM (inactive) | > 10 µM (inactive) | > 5.01 µM (inactive) | > 3.16 µM (inactive) | > 7.94 µM (inactive) | > 7.94 µM (inactive) | > 2.51 µM (inactive) | > 2 µM (inactive) |
| Cc1nn(C)c2sc3c(=O)[nH]cnc3c12 | – | > 39.8 µM (inactive) | 3.16 µM (active) | 25.1 µM (active) | 50.1 µM (active) | > 100 µM (inactive) | 50.1 µM (active) | 100 µM (active) | > 79.4 µM (inactive) | > 79.4 µM (inactive) | 12.6 µM (active) | > 79.4 µM (inactive) |
| Cc1c(/N=C2\C=CC(=O)c3ccccc32)c(=O)n(-c2ccccc2)n1C | 1.63 µM (active) | – | – | – | – | – | – | – | – | – | – | – |
| COc1cc2c(cc1F)C(c1ccccc1Cl)=Nc1c(n[nH]c1C)N2 [RG-1530] | – | 0.0126 µM (active) | 1 µM (active) | > 3.98 µM (inactive) | > 1.26 µM (inactive) | > 10 µM (inactive) | > 5.01 µM (inactive) | 2 µM (active) | > 7.94 µM (inactive) | 0.501 µM (active) | 0.0316 µM (active) | 0.0126 µM (active) |
